# Measured values as given in publication PMC10175918 (Communications Biology, 2023).
# Where two headings read alike, the source gives them in different places.
# Assays:
# Assay in all cases: TGFα-shedding assay-based GPCR screening with chimeric Gα subunit proteins
# Type in all cases: cell-based
# 348 GPCRs [1] = biological target: T1, 348 GPCRs (Homo sapiens, UniProt Q9NYV9); conditions: 10µM, Favipiravir 100μM
# T1 construct: expressed in transfected cells; host or cells: HEK293A
# T1 sequence (Q9NYV9 1-303): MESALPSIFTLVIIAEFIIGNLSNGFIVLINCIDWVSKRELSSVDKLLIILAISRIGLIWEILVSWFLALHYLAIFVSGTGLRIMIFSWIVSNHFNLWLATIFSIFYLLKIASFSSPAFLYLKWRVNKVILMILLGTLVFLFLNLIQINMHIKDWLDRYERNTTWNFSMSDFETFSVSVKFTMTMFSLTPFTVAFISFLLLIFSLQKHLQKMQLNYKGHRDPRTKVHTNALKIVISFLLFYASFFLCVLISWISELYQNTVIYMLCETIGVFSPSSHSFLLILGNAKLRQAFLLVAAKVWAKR
# 348 GPCRs [2] = biological target: T2, 348 GPCRs (Homo sapiens, UniProt Q9NS66); conditions: 10µM, Favipiravir 100μM
# T2 construct: expressed in transfected cells; host or cells: HEK293A
# 348 GPCRs [3] = biological target: T3, 348 GPCRs (Homo sapiens, UniProt Q13324)
# T3 construct: expressed in transfected cells; host or cells: HEK293A
# T3 sequence (Q13324 1-411): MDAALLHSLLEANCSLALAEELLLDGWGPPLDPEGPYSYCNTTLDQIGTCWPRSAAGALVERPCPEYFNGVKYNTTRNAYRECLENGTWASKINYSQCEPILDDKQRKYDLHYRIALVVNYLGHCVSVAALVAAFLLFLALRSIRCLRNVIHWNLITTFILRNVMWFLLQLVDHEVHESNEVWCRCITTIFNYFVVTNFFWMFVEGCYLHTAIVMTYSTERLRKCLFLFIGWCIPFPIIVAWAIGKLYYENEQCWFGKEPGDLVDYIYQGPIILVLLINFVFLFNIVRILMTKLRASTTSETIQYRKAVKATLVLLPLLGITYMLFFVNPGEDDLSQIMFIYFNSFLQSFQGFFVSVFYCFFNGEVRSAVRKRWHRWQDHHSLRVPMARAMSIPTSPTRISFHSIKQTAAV
# 348 GPCRs [4] = biological target: T4, 348 GPCRs (Homo sapiens, UniProt Q9GZP7)
# T4 construct: expressed in transfected cells; host or cells: HEK293A
# T4 sequence (Q9GZP7 1-353): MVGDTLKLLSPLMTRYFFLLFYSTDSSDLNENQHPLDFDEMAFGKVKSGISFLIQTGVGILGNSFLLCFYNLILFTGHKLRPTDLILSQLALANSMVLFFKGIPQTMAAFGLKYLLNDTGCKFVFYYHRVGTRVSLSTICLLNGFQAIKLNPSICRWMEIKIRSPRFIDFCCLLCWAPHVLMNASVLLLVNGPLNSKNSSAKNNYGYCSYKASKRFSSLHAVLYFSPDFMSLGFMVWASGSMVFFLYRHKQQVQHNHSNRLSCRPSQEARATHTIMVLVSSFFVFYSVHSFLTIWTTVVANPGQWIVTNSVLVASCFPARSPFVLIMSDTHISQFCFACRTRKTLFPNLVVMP
# 348 GPCRs [5] = biological target: T5, 348 GPCRs (Homo sapiens, UniProt P21730); conditions: 10µM, Favipiravir 100μM
# T5 construct: expressed in transfected cells; host or cells: HEK293A
# T5 sequence (P21730 1-350): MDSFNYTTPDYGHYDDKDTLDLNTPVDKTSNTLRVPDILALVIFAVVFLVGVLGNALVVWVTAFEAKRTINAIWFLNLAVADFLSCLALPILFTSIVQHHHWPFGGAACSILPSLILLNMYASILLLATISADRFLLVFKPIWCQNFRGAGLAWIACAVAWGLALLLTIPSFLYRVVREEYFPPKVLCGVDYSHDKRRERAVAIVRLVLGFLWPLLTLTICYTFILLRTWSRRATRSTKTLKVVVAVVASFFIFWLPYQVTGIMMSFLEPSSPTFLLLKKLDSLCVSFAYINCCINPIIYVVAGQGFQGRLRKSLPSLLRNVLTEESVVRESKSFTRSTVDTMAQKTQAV
# 348 GPCRs [6] = biological target: T6, 348 GPCRs (Homo sapiens, UniProt P47211); conditions: 10µM, Favipiravir 100μM
# T6 sequence (P47211 1-349): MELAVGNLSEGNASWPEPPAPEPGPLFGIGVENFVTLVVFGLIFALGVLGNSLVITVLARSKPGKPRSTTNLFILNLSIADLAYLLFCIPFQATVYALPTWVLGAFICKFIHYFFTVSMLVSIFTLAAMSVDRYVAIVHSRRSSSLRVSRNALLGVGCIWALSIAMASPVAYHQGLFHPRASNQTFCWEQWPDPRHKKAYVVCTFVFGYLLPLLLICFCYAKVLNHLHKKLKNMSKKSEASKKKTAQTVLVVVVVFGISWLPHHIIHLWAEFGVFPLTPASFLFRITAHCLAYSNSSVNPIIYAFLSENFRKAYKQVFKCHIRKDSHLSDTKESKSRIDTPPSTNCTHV
# 348 GPCRs [7] = biological target: T7, 348 GPCRs (Homo sapiens, UniProt Q96CH1); conditions: 10µM, Favipiravir 100μM
# T7 construct: expressed in transfected cells; host or cells: HEK293A
# 348 GPCRs [8] = biological target: T8, 348 GPCRs (Homo sapiens, UniProt Q96LB0); conditions: 10µM, Favipiravir 100μM
# T8 construct: expressed in transfected cells; host or cells: HEK293A
# [9] = TAS2R13 (taste receptor, type 2, member 13), read-out: % GPCR activation compared to TPA
# [10] = GPR173 (G protein-coupled receptor 173), read-out: % GPCR activation compared to TPA
# [11] = GPCR CRHR2 (corticotropin releasing hormone receptor 2), read-out: % GPCR activation compared to TPA
# [12] = GPCR VN1R1 (vomeronasal 1 receptor), read-out: % GPCR activation compared to TPA
# [13] = C5AR1 (complement C5a receptor 1), read-out: % GPCR activation compared to TPA
# [14] = GALR1 (galanin receptor 1), read-out: % GPCR activation compared to TPA
# [15] = GPR146 (G protein-coupled receptor 146), read-out: % GPCR activation compared to TPA
# [16] = MRGPRX3 (MAS-related GPR, member X3), read-out: % GPCR activation compared to TPA
# [17] = read-out: % GPCR activation compared to TPA, TAS2R13 (taste receptor, type 2, member 13)
# [18] = read-out: % GPCR activation compared to TPA, GPR173 (G protein-coupled receptor 173)
# [19] = read-out: % GPCR activation compared to TPA, GPCR CRHR2 (corticotropin releasing hormone receptor 2)
# [20] = read-out: % GPCR activation compared to TPA, GPCR VN1R1 (vomeronasal 1 receptor)
# [21] = read-out: % GPCR activation compared to TPA, C5AR1 (complement C5a receptor 1)
# [22] = read-out: % GPCR activation compared to TPA, GALR1 (galanin receptor 1)
# [23] = read-out: % GPCR activation compared to TPA, GPR146 (G protein-coupled receptor 146)
# [24] = read-out: % GPCR activation compared to TPA, MRGPRX3 (MAS-related GPR, member X3)
# T2 sequence (Q9NS66 whole entry): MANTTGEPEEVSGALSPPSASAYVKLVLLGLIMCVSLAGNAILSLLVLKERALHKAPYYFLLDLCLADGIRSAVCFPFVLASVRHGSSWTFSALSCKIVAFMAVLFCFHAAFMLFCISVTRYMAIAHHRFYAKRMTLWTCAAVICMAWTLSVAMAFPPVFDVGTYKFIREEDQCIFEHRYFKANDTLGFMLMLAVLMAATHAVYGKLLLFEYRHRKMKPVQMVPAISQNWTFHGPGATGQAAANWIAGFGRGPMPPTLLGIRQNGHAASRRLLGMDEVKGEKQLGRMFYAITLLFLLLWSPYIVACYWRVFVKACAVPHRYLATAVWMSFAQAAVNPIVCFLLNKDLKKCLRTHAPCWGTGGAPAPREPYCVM
# T8 sequence (Q96LB0 whole entry): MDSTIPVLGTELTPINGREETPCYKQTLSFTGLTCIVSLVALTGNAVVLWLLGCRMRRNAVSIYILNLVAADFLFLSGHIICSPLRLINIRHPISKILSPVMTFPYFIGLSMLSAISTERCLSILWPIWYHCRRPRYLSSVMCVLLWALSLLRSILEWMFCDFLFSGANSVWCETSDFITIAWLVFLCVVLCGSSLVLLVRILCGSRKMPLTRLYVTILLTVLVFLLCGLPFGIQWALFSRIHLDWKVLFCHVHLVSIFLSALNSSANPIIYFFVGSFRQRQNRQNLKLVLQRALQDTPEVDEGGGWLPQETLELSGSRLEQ
# T7 sequence (Q96CH1 whole entry): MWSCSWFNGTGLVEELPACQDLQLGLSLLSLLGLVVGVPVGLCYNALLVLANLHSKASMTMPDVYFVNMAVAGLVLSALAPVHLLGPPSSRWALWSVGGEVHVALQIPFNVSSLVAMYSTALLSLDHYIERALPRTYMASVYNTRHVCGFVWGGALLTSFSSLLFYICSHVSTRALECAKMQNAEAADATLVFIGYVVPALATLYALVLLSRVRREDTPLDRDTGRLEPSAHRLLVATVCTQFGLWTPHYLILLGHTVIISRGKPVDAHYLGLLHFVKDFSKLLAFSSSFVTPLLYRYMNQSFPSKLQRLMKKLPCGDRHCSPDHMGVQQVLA
SMILES,activation at 100 µM (348 GPCRs [1]; [9]) [%],activation at 10 µM (348 GPCRs [2]; [10]) [%],activation at 10 µM (348 GPCRs [3]; [11]) [%],activation at 10 µM (348 GPCRs [4]; [12]) [%],activation at 10 µM (348 GPCRs [5]; [13]) [%],activation at 100 µM (348 GPCRs [6]; [14]) [%],activation at 100 µM (348 GPCRs [7]; [15]) [%],activation at 100 µM (348 GPCRs [8]; [16]) [%],"activation at 100 µM (348 GPCRs [3]; GPCR CRHR2 (corticotropin releasing hormone receptor 2), 100μM, read-out: % GPCR activation compared to TPA) [%]","activation at 100 µM (348 GPCRs [4]; GPCR VN1R1 (vomeronasal 1 receptor), 100μM, read-out: % GPCR activation compared to TPA) [%]",activation at 100 µM (348 GPCRs [1]; [17]) [%],activation at 10 µM (348 GPCRs [2]; [18]) [%],activation at 10 µM (348 GPCRs [3]; [19]) [%],activation at 10 µM (348 GPCRs [4]; [20]) [%],activation at 10 µM (348 GPCRs [5]; [21]) [%],activation at 100 µM (348 GPCRs [6]; [22]) [%],activation at 100 µM (348 GPCRs [7]; [23]) [%],activation at 100 µM (348 GPCRs [8]; [24]) [%]
CCC(CC)COC(=O)[C@H](C)N[P@](=O)(OC[C@H]1O[C@@](C#N)(c2ccc3c(N)ncnn23)[C@H](O)[C@@H]1O)Oc1ccccc1 [remdesivir],–,–,–,–,–,–,–,–,–,–,1.1,1.49,1.58,3.04,-1.43,6.53,1.36,-0.608
CC(C)OC(=O)[C@H](C)N[P@](=O)(OC[C@H]1O[C@@H](n2ccc(=O)[nH]c2=O)[C@](C)(F)[C@@H]1O)Oc1ccccc1 [sofosbuvir],–,–,–,–,–,–,–,–,–,–,-2.09,-0.581,2.1,-0.898,-2.89,-0.0144,-6.46,0.522

# Second part, led by results:
activation at 100 µM (348 GPCRs [1]; [9]) [%],activation at 10 µM (348 GPCRs [2]; [10]) [%],activation at 10 µM (348 GPCRs [3]; [11]) [%],activation at 10 µM (348 GPCRs [4]; [12]) [%],activation at 10 µM (348 GPCRs [5]; [13]) [%],activation at 100 µM (348 GPCRs [6]; [14]) [%],activation at 100 µM (348 GPCRs [7]; [15]) [%],activation at 100 µM (348 GPCRs [8]; [16]) [%],"activation at 100 µM (348 GPCRs [3]; GPCR CRHR2 (corticotropin releasing hormone receptor 2), 100μM, read-out: % GPCR activation compared to TPA) [%]","activation at 100 µM (348 GPCRs [4]; GPCR VN1R1 (vomeronasal 1 receptor), 100μM, read-out: % GPCR activation compared to TPA) [%]",SMILES,activation at 100 µM (348 GPCRs [1]; [17]) [%],activation at 10 µM (348 GPCRs [2]; [18]) [%],activation at 10 µM (348 GPCRs [3]; [19]) [%],activation at 10 µM (348 GPCRs [4]; [20]) [%],activation at 10 µM (348 GPCRs [5]; [21]) [%],activation at 100 µM (348 GPCRs [6]; [22]) [%],activation at 100 µM (348 GPCRs [7]; [23]) [%],activation at 100 µM (348 GPCRs [8]; [24]) [%]
0.783,0.119,0.656,2.87,-2.17,0.832,0.00864,-0.726,–,–,N#C[C@@]1(c2ccc3c(N)ncnn23)O[C@H](CO)[C@@H](O)[C@H]1O [GS441524],–,–,–,–,–,–,–,–
-1.06,0.0591,–,–,-6.83,7.08,0.0656,-0.33,-0.529,1.77,"NC(=O)c1nc(F)cnc1O [favipiravir, 6-fluoro-3-hydroxy-2-pyrazinecarboxamide]",–,–,–,–,–,–,–,–
-0.971,-4.49,-0.005,-1.19,-2.78,1.08,-4.56,-1.5,–,–,CC(C)C(=O)OC[C@H]1O[C@@H](n2ccc(NO)nc2=O)[C@H](O)[C@@H]1O [molnupiravir],–,–,–,–,–,–,–,–
